Values joined by “and” are separate entries in the source; they are usually repeats but may differ in a detail not shown here. Identical values can stand only once. Inconclusive results and toxic doses are left out.
System: B6C3F1 mice, B16 melanoma ip, median survival T/C
Test: NCI In Vivo Anticancer Drug Screen. Data for tumor model B16 Melanoma (intraperitoneal) in B6C3F1 mice
Conditions: endpoint: median survival time, higher = longer survival
Procedure, shortened: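 Tumor-bearing mice received test compound; a separate group got vehicle only. Survival was then compared, with results reported as treated over control.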

[1] = dose: 12.5 mg/kg/injection, schedule: Q01DX009 (ip), vehicle: saline with Tween-80
[2] = dose: 25.0 mg/kg/injection, schedule: Q01DX009 (ip), vehicle: Klucel (hydroxypropylcellulose) (HPC)
[3] = dose: 25.0 mg/kg/injection, schedule: Q01DX009 (ip), vehicle: saline with Tween-80
[4] = dose: 50.0 mg/kg/injection, schedule: Q01DX009 (ip), vehicle: Klucel (hydroxypropylcellulose) (HPC)
[5] = dose: 50.0 mg/kg/injection, schedule: Q01DX009 (ip), vehicle: saline with Tween-80
[6] = dose: 100.0 mg/kg/injection, schedule: Q01DX009 (ip), vehicle: saline with Tween-80
[7] = dose: 200.0 mg/kg/injection, schedule: Q01DX009 (ip), vehicle: Klucel (hydroxypropylcellulose) (HPC)
[8] = dose: 200.0 mg/kg/injection, schedule: Q01DX009 (ip), vehicle: saline with Tween-80
[9] = dose: 6.25 mg/kg/injection, schedule: Q01DX009 (ip), vehicle: saline with Tween-80
[10] = dose: 12.5 mg/kg/injection, schedule: Q01DX009 (ip), vehicle: saline
[11] = dose: 25.0 mg/kg/injection, schedule: Q01DX009 (ip), vehicle: saline
[12] = dose: 6.25 mg/kg/injection, schedule: Q01DX009 (ip), vehicle: Klucel (hydroxypropylcellulose) (HPC)
[13] = dose: 200.0 mg/kg/injection, schedule: Q01DX009 (ip), vehicle: saline
[14] = dose: 100.0 mg/kg/injection, schedule: Q01DX009 (ip), vehicle: Klucel (hydroxypropylcellulose) (HPC)
[15] = dose: 400.0 mg/kg/injection, schedule: Q01DX009 (ip), vehicle: saline with Tween-80

## O=Cc1ccccc1
[1]
  T/C: 101 % of control
[2]
  T/C: 100 % of control
[3]
  T/C: 99 % of control
[4]
  T/C: 105 % of control
[5]
  T/C: 98 % of control
dose: 50.0 mg/kg/injection, schedule: Q01DX009 (oral), vehicle: Klucel (hydroxypropylcellulose) (HPC)
  T/C: 95 % of control
[6]
  T/C: 98 % of control
dose: 100.0 mg/kg/injection, schedule: Q01DX009 (oral), vehicle: Klucel (hydroxypropylcellulose) (HPC)
  T/C: 88 % of control
[7]
  T/C: 86 % of control
[8]
  T/C: 89 % of control
dose: 200.0 mg/kg/injection, schedule: Q01DX009 (oral), vehicle: Klucel (hydroxypropylcellulose) (HPC)
  T/C: 98 % of control
dose: 400.0 mg/kg/injection, schedule: Q01DX009 (ip), vehicle: Klucel (hydroxypropylcellulose) (HPC)
  T/C: 92 % of control
dose: 400.0 mg/kg/injection, schedule: Q01DX009 (oral), vehicle: Klucel (hydroxypropylcellulose) (HPC)
  T/C: 105 % of control

## O=C(O)C1CCCN1C(=O)OCc1ccccc1 (centres undefined)
[4]
  T/C: 97 % of control
[7]
  T/C: 89 % of control

## C[CH2][Sn]([CH2]C)([CH2]C(=O)OC)[CH2]C(=O)OC
dose: 1.56 mg/kg/injection, schedule: Q01DX009 (ip), vehicle: saline with Tween-80
  T/C: 95 % of control
dose: 3.12 mg/kg/injection, schedule: Q01DX009 (ip), vehicle: saline with Tween-80
  T/C: 107 % of control
[9]
  T/C: 90 % of control

## CCCNc1ncnc2c1cnn2C
[10]
  T/C: 91 % of control
[11]
  T/C: 93 % of control

## CCCCCC[Se][Se]CCCCCC
dose: 1.56 mg/kg/injection, schedule: Q01DX009 (ip), vehicle: Klucel (hydroxypropylcellulose) (HPC)
  T/C: 97 % of control
dose: 3.12 mg/kg/injection, schedule: Q01DX009 (ip), vehicle: Klucel (hydroxypropylcellulose) (HPC)
  T/C: 106 % of control
[12]
  T/C: 95 % of control

## C1CNCOC1
dose: 6.25 mg/kg/injection, schedule: Q01DX009 (ip), vehicle: saline
  T/C: 112 % of control and 95 % of control
[10]
  T/C: 102 % of control and 104 % of control
[11]
  T/C: 96 % of control and 101 % of control
dose: 50.0 mg/kg/injection, schedule: Q01DX009 (ip), vehicle: saline
  T/C: 96 % of control and 103 % of control
dose: 100.0 mg/kg/injection, schedule: Q01DX009 (ip), vehicle: saline
  T/C: 112 % of control
[13]
  T/C: 105 % of control

## CCC1OCC(C(Cl)CCl)O1 (centres undefined)
[2]
  T/C: 105 % of control
[4]
  T/C: 96 % of control
[14]
  T/C: 91 % of control
[7]
  T/C: 98 % of control

## C[C@@H]1CN(C(=O)CCOS(C)(=O)=O)[C@@H](C)CN1C(=O)CCOS(C)(=O)=O
[13]
  T/C: 172 % of control

## OC(c1ccccc1)C(O)C(c1ccccc1)N1CCCCC1 (centres undefined)
[6]
  T/C: 100 % of control
[8]
  T/C: 102 % of control
[15]
  T/C: 111 % of control

## CC(=O)[O][Pb]([O]C(C)=O)([c]1ccccc1)[c]1ccccc1
[12]
  T/C: 88 % of control
dose: 12.5 mg/kg/injection, schedule: Q01DX009 (ip), vehicle: Klucel (hydroxypropylcellulose) (HPC)
  T/C: 90 % of control
[2]
  T/C: 88 % of control
[4]
  T/C: 93 % of control

## Nc1nc(N)c2cc(CNc3ccc(C(=O)NC(CC(=O)O)CC(=O)O)cc3)ccc2n1
dose: 0.04 mg/kg/injection, schedule: Q01DX009 (ip), vehicle: Klucel (hydroxypropylcellulose) (HPC)
  T/C: 87 % of control
dose: 0.09 mg/kg/injection, schedule: Q01DX009 (ip), vehicle: Klucel (hydroxypropylcellulose) (HPC)
  T/C: 89 % of control
dose: 0.39 mg/kg/injection, schedule: Q01DX009 (ip), vehicle: Klucel (hydroxypropylcellulose) (HPC)
  T/C: 87 % of control
[9]
  T/C: 110 % of control
[1]
  T/C: 90 % of control
[3]
  T/C: 95 % of control
[5]
  T/C: 87 % of control

## Nc1n[n+](-c2ccccc2)no1
dose: 3.12 mg/kg/injection, schedule: Q01DX009 (ip), vehicle: water
  T/C: 98 % of control
dose: 6.25 mg/kg/injection, schedule: Q01DX009 (ip), vehicle: water
  T/C: 107 % of control
dose: 12.5 mg/kg/injection, schedule: Q01DX009 (ip), vehicle: water
  T/C: 118 % of control

## CC1=CC2c3cccc4[nH]cc(c34)CC2N(C)C1 (centres undefined)
dose: 2.5 mg/kg/injection, schedule: Q01DX009 (ip), vehicle: suspension in saline
  T/C: 103 % of control
dose: 5.0 mg/kg/injection, schedule: Q01DX009 (ip), vehicle: suspension in saline
  T/C: 101 % of control
dose: 10.0 mg/kg/injection, schedule: Q01DX009 (ip), vehicle: suspension in saline
  T/C: 101 % of control
dose: 20.0 mg/kg/injection, schedule: Q01DX009 (ip), vehicle: suspension in saline
  T/C: 95 % of control

## O=C1C=C(Nc2ccc(O)cc2)c2ccccc2C1=O
dose: 5.0 mg/kg/injection, schedule: Q01DX009 (ip), vehicle: saline
  T/C: 102 % of control
dose: 10.0 mg/kg/injection, schedule: Q01DX009 (ip), vehicle: saline
  T/C: 98 % of control
dose: 20.0 mg/kg/injection, schedule: Q01DX009 (ip), vehicle: saline
  T/C: 93 % of control

## CN1N=C(N)c2cn(C3OC(COP(=O)(O)O)C(O)C3O)c3ncnc1c23 (centres undefined)
dose: 12.0 mg/kg/injection, schedule: Q01DX009 (ip), vehicle: Klucel (hydroxypropylcellulose) (HPC)
  T/C: 93 % of control
[2]
  T/C: 93 % of control
[4]
  T/C: 96 % of control
[14]
  T/C: 91 % of control

## CN=S(=O)(OCCCCCOS(=O)(=NC)c1ccc(C)cc1)c1ccc(C)cc1 (centres undefined)
[1]
  T/C: 94 % of control
[3]
  T/C: 104 % of control
[5]
  T/C: 113 % of control
[6]
  T/C: 123 % of control

## C=Cc1cc(OC)c2c(c1)c(=O)oc1c2cc(OC)c2c(O)ccc(C3OC(C(C)O)C(O)C3O)c21 (centres undefined)
[2]
  T/C: 165 % of control

## COc1cccc2c1C(=O)c1c(O)c3c(c(O)c1C2=O)C[C@@](O)(C(C)O)C[C@@H]3OC1CC(N2CCOCC2)C(O)C(C)O1 (some centres undefined)
dose: 0.06 mg/kg/injection, schedule: Q01DX001 (ip), vehicle: water
  T/C: 111 % of control
dose: 0.13 mg/kg/injection, schedule: Q01DX001 (ip), vehicle: water
  T/C: 115 % of control
dose: 62.5 micrograms/kg/injection, schedule: Q01DX001 (ip), vehicle: water
  T/C: 107 % of control
dose: 125.0 micrograms/kg/injection, schedule: Q01DX001 (ip), vehicle: water
  T/C: 106 % of control
dose: 250.0 micrograms/kg/injection, schedule: Q01DX001 (ip), vehicle: water
  T/C: 120 % of control

## ClCC[Se](Cl)(Cl)c1ccccc1
dose: 1.5 mg/kg/injection, schedule: Q01DX009 (ip), vehicle: saline
  T/C: 102 % of control
dose: 1.56 mg/kg/injection, schedule: Q01DX009 (ip), vehicle: saline
  T/C: 113 % of control
dose: 3.0 mg/kg/injection, schedule: Q01DX009 (ip), vehicle: saline
  T/C: 116 % of control
dose: 6.0 mg/kg/injection, schedule: Q01DX009 (ip), vehicle: saline
  T/C: 108 % of control

## Cc1c(N)nc([C@H](CC(N)=O)NC[C@H](N)C(N)=O)nc1C(=O)N[C@H](C(=O)N[C@H](C)[C@@H](O)CC(=O)N[C@H](C(=O)NC(O[C@@H]1O[C@@H](C)[C@@H](N)[C@@H](O)[C@H]1O)C(O)c1nc(-c2nc(C(=O)NCCCCN)cs2)cs1)[C@@H](C)O)[C@@H](O[C@@H]1O[C@@H](CO)[C@@H](O)[C@H](O)[C@@H]1O[C@H]1O[C@H](CO)[C@@H](O)[C@H](OC(N)=O)[C@@H]1O)c1c[nH]cn1 (some centres undefined)
dose: 0.25 mg/kg/injection, schedule: Q01DX009 (ip), vehicle: saline
  T/C: 104 % of control
dose: 0.4 mg/kg/injection, schedule: Q01DX009 (ip), vehicle: saline
  T/C: 116 % of control and 94 % of control
dose: 0.5 mg/kg/injection, schedule: Q01DX009 (ip), vehicle: saline
  T/C: 107 % of control
dose: 0.8 mg/kg/injection, schedule: Q01DX009 (ip), vehicle: saline
  T/C: 94 % of control
dose: 1.0 mg/kg/injection, schedule: Q01DX009 (ip), vehicle: saline
  T/C: 115 % of control
dose: 1.6 mg/kg/injection, schedule: Q01DX009 (ip), vehicle: saline
  T/C: 98 % of control
dose: 2.0 mg/kg/injection, schedule: Q01DX009 (ip), vehicle: saline
  T/C: 114 % of control
dose: 3.2 mg/kg/injection, schedule: Q01DX009 (ip), vehicle: saline
  T/C: 101 % of control
dose: 4.0 mg/kg/injection, schedule: Q01DX009 (ip), vehicle: saline
  T/C: 121 % of control
dose: 6.4 mg/kg/injection, schedule: Q01DX009 (ip), vehicle: saline
  T/C: 97 % of control

## CC(C(C(=O)N1CCCCC1)N1CCCCC1)N1CCCCC1 (centres undefined)
[6]
  T/C: 94 % of control
[8]
  T/C: 95 % of control
[15]
  T/C: 103 % of control

Reference: PubChem BioAssay AID200 (DTP/NCI, 2004)
